Experimental data published in US20250066363A1, “Bicyclic DGK Inhibitors” (Incyte Corporation, priority 2023, published 2025).

Legend:
[1] = target: DGKα (Homo sapiens (Human), UniProt P23743); test: In vitro DGKα inhibition assay (ADP-Glo); format: biochemical; settings: first column of Table A; His-tagged human recombinant DGKα 0.1 nM, 50 μM ATP, 20 μM DLG
[2] = target: DGKζ (Homo sapiens (Human), UniProt Q13574); test: In vitro DGKζ inhibition assay (ADP-Glo); format: biochemical; settings: second column of Table A, head printed DGKα, presumably DGKζ; His-tagged human recombinant DGKζ 0.4 nM, 30 μM ATP, 20 μM DLG
DGKζ, sequence (Q13574 whole entry): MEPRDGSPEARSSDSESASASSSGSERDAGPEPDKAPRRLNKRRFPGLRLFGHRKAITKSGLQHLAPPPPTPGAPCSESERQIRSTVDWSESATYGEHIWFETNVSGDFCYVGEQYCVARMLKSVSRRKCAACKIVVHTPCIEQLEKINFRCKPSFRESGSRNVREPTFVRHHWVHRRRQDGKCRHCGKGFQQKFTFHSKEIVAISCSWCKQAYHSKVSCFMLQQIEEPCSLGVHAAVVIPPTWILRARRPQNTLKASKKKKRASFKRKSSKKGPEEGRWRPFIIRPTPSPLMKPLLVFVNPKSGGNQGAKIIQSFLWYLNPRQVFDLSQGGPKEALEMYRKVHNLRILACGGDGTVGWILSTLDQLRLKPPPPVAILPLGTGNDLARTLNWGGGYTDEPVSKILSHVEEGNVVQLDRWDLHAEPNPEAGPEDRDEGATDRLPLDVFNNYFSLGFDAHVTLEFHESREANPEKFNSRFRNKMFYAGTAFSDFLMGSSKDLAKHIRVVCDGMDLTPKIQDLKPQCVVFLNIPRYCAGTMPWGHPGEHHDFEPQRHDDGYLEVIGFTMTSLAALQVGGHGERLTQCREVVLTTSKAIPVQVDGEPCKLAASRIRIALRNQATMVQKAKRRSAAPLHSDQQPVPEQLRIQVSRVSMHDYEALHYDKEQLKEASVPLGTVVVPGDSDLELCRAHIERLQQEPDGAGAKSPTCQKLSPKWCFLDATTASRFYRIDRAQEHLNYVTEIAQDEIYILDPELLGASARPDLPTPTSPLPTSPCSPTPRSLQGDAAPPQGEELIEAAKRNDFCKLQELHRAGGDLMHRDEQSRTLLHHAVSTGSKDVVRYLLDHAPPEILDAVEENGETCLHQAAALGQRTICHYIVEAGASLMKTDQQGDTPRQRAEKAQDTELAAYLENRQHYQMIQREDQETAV

DGKα, sequence (P23743 whole entry): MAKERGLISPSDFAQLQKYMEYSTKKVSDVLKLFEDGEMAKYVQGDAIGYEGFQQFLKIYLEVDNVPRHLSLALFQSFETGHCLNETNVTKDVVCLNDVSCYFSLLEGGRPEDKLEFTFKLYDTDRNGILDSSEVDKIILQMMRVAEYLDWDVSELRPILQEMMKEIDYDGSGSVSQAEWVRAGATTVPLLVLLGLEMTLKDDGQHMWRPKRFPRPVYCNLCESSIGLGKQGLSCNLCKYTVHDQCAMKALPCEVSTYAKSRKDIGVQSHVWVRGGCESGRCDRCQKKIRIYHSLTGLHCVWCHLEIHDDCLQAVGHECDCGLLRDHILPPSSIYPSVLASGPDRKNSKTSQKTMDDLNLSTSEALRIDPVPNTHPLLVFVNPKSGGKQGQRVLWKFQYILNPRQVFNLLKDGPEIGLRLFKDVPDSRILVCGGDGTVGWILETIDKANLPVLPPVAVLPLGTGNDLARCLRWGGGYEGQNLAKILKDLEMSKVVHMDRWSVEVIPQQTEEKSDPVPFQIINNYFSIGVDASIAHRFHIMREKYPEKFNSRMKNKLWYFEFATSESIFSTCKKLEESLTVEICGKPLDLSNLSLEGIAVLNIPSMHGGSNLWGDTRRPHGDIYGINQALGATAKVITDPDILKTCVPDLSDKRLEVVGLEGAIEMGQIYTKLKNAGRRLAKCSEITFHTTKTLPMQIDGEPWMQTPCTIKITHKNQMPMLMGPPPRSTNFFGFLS

SMILES	IC50 [1] [nM]	IC50 [2] [nM]
Cc1nc2c(N3C[C@@H](C)N([C@H](c4ccc5cc(F)ccc5n4)C(C)C)C[C@@H]3C)nc(=O)n(C)c2n1C[C@@H]1CCCO1 [Example 47, 6-((2S,5R)-4-((S)-1-(6-Fluoroquinolin-2-yl)-2-methylpropyl)-2,5-dimethylpiperazin-1-yl)-3,8-dimethyl-9-(((S)-tetrahydrofuran-2-yl)methyl)-3,9-dihydro-2H-purin-2-one]	≤ 10	≤ 10
Cc1nc2c(N3C[C@@H](C)N([C@@H](c4ccc5cc(F)ccc5n4)C(C)C)C[C@@H]3C)nc(=O)n(C)c2n1C[C@@H]1CCCO1 [Example 48, 6-((2S,5R)-4-((R)-1-(6-fluoroquinolin-2-yl)-2-methylpropyl)-2,5-dimethylpiperazin-1-yl)-3,8-dimethyl-9-(((S)-tetrahydrofuran-2-yl)methyl)-3,9-dihydro-2H-purin-2-one]	≤ 10	≤ 10
Cc1nc2c(N3C[C@@H](C)N([C@@H](c4ccc5ccc(C(F)(F)F)cc5n4)C(C)C)C[C@@H]3C)nc(=O)n(C)c2n1C[C@@H]1CCCO1 [Example 49, 6-((2S,5R)-2,5-Dimethyl-4-((R)-2-methyl-1-(7-(trifluoromethyl)quinolin-2-yl)propyl)piperazin-1-yl)-3,8-dimethyl-9-(((S)-tetrahydrofuran-2-yl)methyl)-3,9-dihydro-2H-purin-2-one]	≤ 10	≤ 10
Cc1nc2c(N3C[C@@H](C)N([C@H](c4ccc5ccc(C(F)(F)F)cc5n4)C(C)C)C[C@@H]3C)nc(=O)n(C)c2n1C[C@@H]1CCCO1 [Example 50, 6-((2S,5R)-2,5-dimethyl-4-((S)-2-methyl-1-(7-(trifluoromethyl)quinolin-2-yl)propyl)piperazin-1-yl)-3,8-dimethyl-9-(((S)-tetrahydrofuran-2-yl)methyl)-3,9-dihydro-2H-purin-2-one]	≤ 10	≤ 10
Cc1nc2c(N3C[C@@H](C)N([C@H](c4ccc(C(F)(F)F)cc4F)C(C)C)C[C@@H]3C)nc(=O)n(C)c2n1C[C@@H]1CCCO1 [Example 51, 6-((2S,5R)-4-((S)-1-(2-Fluoro-4-(trifluoromethyl)phenyl)-2-methylpropyl)-2,5-dimethylpiperazin-1-yl)-3,8-dimethyl-9-(((S)-tetrahydrofuran-2-yl)methyl)-3,9-dihydro-2H-purin-2-one]	≤ 10	≤ 10
Cc1nc2c(N3C[C@@H](C)N([C@@H](c4ccc(C(F)(F)F)cc4F)C(C)C)C[C@@H]3C)nc(=O)n(C)c2n1C[C@@H]1CCCO1 [Example 52, 6-((2S,5R)-4-((R)-1-(2-Fluoro-4-(trifluoromethyl)phenyl)-2-methylpropyl)-2,5-dimethylpiperazin-1-yl)-3,8-dimethyl-9-(((S)-tetrahydrofuran-2-yl)methyl)-3,9-dihydro-2H-purin-2-one]	≤ 10	≤ 10
Cc1nc2c(N3C[C@@H](C)N([C@H](c4ccc(C(F)(F)F)cc4)C(C)C)C[C@@H]3C)nc(=O)n(C)c2n1C[C@@H]1CCCO1 [Example 53, 6-((2S,5R)-2,5-Dimethyl-4-((S)-2-methyl-1-(4-(trifluoromethyl)phenyl)propyl)piperazin-1-yl)-3,8-dimethyl-9-(((S)-tetrahydrofuran-2-yl)methyl)-3,9-dihydro-2H-purin-2-one]	≤ 100	≤ 100
Cc1nc2c(N3C[C@@H](C)N([C@@H](c4ccc(C(F)(F)F)cc4)C(C)C)C[C@@H]3C)nc(=O)n(C)c2n1C[C@@H]1CCCO1 [Example 54, 6-((2S,5R)-2,5-dimethyl-4-((R)-2-methyl-1-(4-(trifluoromethyl)phenyl)propyl)piperazin-1-yl)-3,8-dimethyl-9-(((S)-tetrahydrofuran-2-yl)methyl)-3,9-dihydro-2H-purin-2-one]	≤ 10	≤ 10
Cc1nc2c(N3C[C@@H](C)N([C@H](c4ccc(C(F)F)c(F)c4)C(C)C)C[C@@H]3C)nc(=O)n(C)c2n1C[C@@H]1CCCO1 [Example 55, 6-((2S,5R)-4-((S)-1-(4-(Difluoromethyl)-3-fluorophenyl)-2-methylpropyl)-2,5-dimethylpiperazin-1-yl)-3,8-dimethyl-9-(((S)-tetrahydrofuran-2-yl)methyl)-3,9-dihydro-2H-purin-2-one]	≤ 10	≤ 10
Cc1nc2c(N3C[C@@H](C)N([C@@H](c4ccc(C(F)F)c(F)c4)C(C)C)C[C@@H]3C)nc(=O)n(C)c2n1C[C@@H]1CCCO1 [Example 56, 6-((2S,5R)-4-((R)-1-(4-(difluoromethyl)-3-fluorophenyl)-2-methylpropyl)-2,5-dimethylpiperazin-1-yl)-3,8-dimethyl-9-(((S)-tetrahydrofuran-2-yl)methyl)-3,9-dihydro-2H-purin-2-one]	≤ 10	≤ 10
CC(C)[C@@H](c1ccc(Cl)cc1)N1C[C@H](C)N(c2nc(=O)n(C)c3c2ncn3CC2(O)CCCC2)C[C@H]1C [Example 57, 6-((2S,5R)-4-((S)-1-(4-Chlorophenyl)-2-methylpropyl)-2,5-dimethylpiperazin-1-yl)-9-((1-hydroxycyclopentyl)methyl)-3-methyl-3,9-dihydro-2H-purin-2-on]	≤ 10	≤ 10
CC(C)[C@H](c1ccc(Cl)cc1)N1C[C@H](C)N(c2nc(=O)n(C)c3c2ncn3CC2(O)CCCC2)C[C@H]1C [Example 58, 6-((2S,5R)-4-((R)-1-(4-chlorophenyl)-2-methylpropyl)-2,5-dimethylpiperazin-1-yl)-9-((1-hydroxycyclopentyl)methyl)-3-methyl-3,9-dihydro-2H-purin-2-one]	≤ 10	≤ 10
CC[C@@H]1CN(c2nc(=O)n(C)c3c2nc(C)n3C[C@@H]2CCCO2)[C@@H](C)CN1[C@H](c1ccc(C(F)(F)F)cc1)C(C)C [Example 59, 6-((2S,5R)-5-Ethyl-2-methyl-4-((S)-2-methyl-1-(4-(trifluoromethyl)phenyl)propyl)piperazin-1-yl)-3,8-dimethyl-9-(((S)-tetrahydrofuran-2-yl)methyl)-3,9-dihydro-2H-purin-2-one]	≤ 10	≤ 10
CC[C@@H]1CN(c2nc(=O)n(C)c3c2nc(C)n3C[C@@H]2CCCO2)[C@@H](C)CN1[C@@H](c1ccc(C(F)(F)F)cc1)C(C)C [Example 60, 6-((2S,5R)-5-ethyl-2-methyl-4-((R)-2-methyl-1-(4-(trifluoromethyl)phenyl)propyl)piperazin-1-yl)-3,8-dimethyl-9-(((S)-tetrahydrofuran-2-yl)methyl)-3,9-dihydro-2H-purin-2-one]	≤ 10	≤ 10
CC[C@@H]1CN(c2nc(=O)n(C)c3c2nc(C)n3C[C@@H]2CCCO2)[C@@H](C)CN1[C@@H](C)c1ccc(C(F)(F)F)cc1 [Example 61, 6-((2S,5R)-5-Ethyl-2-methyl-4-((S)-1-(4-(trifluoromethyl)phenyl)ethyl)piperazin-1-yl)-3,8-dimethyl-9-(((S)-tetrahydrofuran-2-yl)methyl)-3,9-dihydro-2H-purin-2-one]	≤ 10	≤ 10
CC[C@@H]1CN(c2nc(=O)n(C)c3c2nc(C)n3C[C@@H]2CCCO2)[C@@H](C)CN1[C@H](C)c1ccc(C(F)(F)F)cc1 [Example 62, 6-((2S,5R)-5-ethyl-2-methyl-4-((R)-1-(4-(trifluoromethyl)phenyl)ethyl)piperazin-1-yl)-3,8-dimethyl-9-(((S)-tetrahydrofuran-2-yl)methyl)-3,9-dihydro-2H-purin-2-one]	≤ 10	≤ 10
CC[C@@H]1CN(c2nc(=O)n(C)c3c2nc(C)n3C[C@H]2OCC[C@@H]2O)[C@@H](C)CN1C(c1ccc(Cl)cc1)C1CC(F)(F)C1 (stereo partly drawn) [Example 65, 6-((2S,5R)-4-((4-Chlorophenyl)(3,3-difluorocyclobutyl)methyl)-5-ethyl-2-methylpiperazin-1-yl)-9-(((2R,3S)-3-hydroxytetrahydrofuran-2-yl)methyl)-3,8-dimethyl-3,9-dihydro-2H-purin-2-one]	≤ 10	≤ 10
C[C@@H]1CN(c2nc(=O)n(C)c3c2ncn3CC2(O)CCC2)[C@@H](C)CN1C(c1ccc(Cl)cc1)C1CC(F)(F)C1 (stereo partly drawn) [Example 67, 6-((2S,5R)-4-((4-Chlorophenyl)(3,3-difluorocyclobutyl)methyl)-2,5-dimethylpiperazin-1-yl)-9-((1-hydroxycyclobutyl)methyl)-3-methyl-3,9-dihydro-2H-purin-2-one]	≤ 10	≤ 10
CC[C@@H]1CN(c2nc(=O)n(C)c3c2nc(C)n3C[C@H]2OCC[C@@H]2O)[C@@H](C)CN1[C@@H](CC)c1ccc(C(F)(F)F)cc1 [Example 69, 6-((2S,5R)-5-Ethyl-2-methyl-4-((S)-1-(4-(trifluoromethyl)phenyl)propyl)piperazin-1-yl)-9-(((2R,3S)-3-hydroxytetrahydrofuran-2-yl)methyl)-3,8-dimethyl-3,9-dihydro-2H-purin-2-one]	≤ 10	≤ 10
CC[C@@H]1CN(c2nc(=O)n(C)c3c2nc(C)n3C[C@H]2OCC[C@@H]2O)[C@@H](C)CN1[C@H](CC)c1ccc(C(F)(F)F)cc1 [Example 70, 6-((2S,5R)-5-ethyl-2-methyl-4-((R)-1-(4-(trifluoromethyl)phenyl)propyl)piperazin-1-yl)-9-(((2R,3S)-3-hydroxytetrahydrofuran-2-yl)methyl)-3,8-dimethyl-3,9-dihydro-2H-purin-2-one]	≤ 10	≤ 10
CC[C@@H]1CN(c2nc(=O)n(C)c3c2nc(C)n3C[C@H]2OCC[C@H]2O)[C@@H](C)CN1[C@@H](CC)c1ccc(C(F)(F)F)cc1 [Example 71, 6-((2S,5R)-5-Ethyl-2-methyl-4-((S)-1-(4-(trifluoromethyl)phenyl)propyl)piperazin-1-yl)-9-(((2R,3R)-3-hydroxytetrahydrofuran-2-yl)methyl)-3,8-dimethyl-3,9-dihydro-2H-purin-2-one]	≤ 10	≤ 10
